From patent US20210355107A1, “MULTI-SUBSTITUTED PYRIDONE DERIVATIVES AND MEDICAL USE THEREOF” (Beijing Yuezhikangtai Biomedicines Co., Ltd., priority 2018, published 2021)

Tests used:
kinase Axl = target: T1, kinase Axl (Homo sapiens, UniProt P30530); assay: Mobility shift assay, inhibitory activity against kinase Axl; assay type: biochemical; conditions: ATP at Km (81 μM), average of two independent experiments
T1 construct: purchased Carna 08-107
T1 sequence (P30530 473-894 limits assumed): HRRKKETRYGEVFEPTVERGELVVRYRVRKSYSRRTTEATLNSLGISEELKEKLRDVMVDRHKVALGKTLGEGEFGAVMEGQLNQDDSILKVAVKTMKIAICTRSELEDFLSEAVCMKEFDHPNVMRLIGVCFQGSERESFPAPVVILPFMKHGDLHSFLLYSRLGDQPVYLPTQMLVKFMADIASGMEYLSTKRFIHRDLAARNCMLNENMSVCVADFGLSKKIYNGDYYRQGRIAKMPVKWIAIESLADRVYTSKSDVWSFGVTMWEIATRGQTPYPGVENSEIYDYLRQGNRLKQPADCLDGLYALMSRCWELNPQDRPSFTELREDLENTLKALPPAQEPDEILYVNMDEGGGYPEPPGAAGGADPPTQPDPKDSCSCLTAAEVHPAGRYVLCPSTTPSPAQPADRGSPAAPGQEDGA
Description: (§1) In this test, mobility shift assay was used to test the inhibitory activity of compounds when ATP concentrations correspond to the Km of the kinases.
(§2) The concentration of test compound was 10-fold diluted from an initial concentration of 10 μM. The test result (IC50) was the average of two independent experiments.
(§3) For example, a compound at an initial concentration of 10 μM was adjusted to 500 μM with 100% DMSO, then serially diluted for 10 concentrations, and then subjected to 10-fold dilution with the buffer to prepare a diluted compound intermediate containing 10% DMSO, 5 μL of which was transferred to the 384-well plate.
(§4) 10 μL of the two enzyme solutions each was added to the 384-well plate and co-incubated with the compound for 10-15 min at room temperature.
(§5) 10 μL of the diluted substrate was added to the 384-well plate to initiate the reaction, which lasts for 1 h at 28° C.
(§6) 5) The conversion rate was read by Caliper Reader (Perkin Elmer) and the inhibition rate was calculated as the average of two tests.
(§7) 6) IC50 values were fitted with XL-fit software.

kinase c-MET = target: T2, kinase c-MET (Homo sapiens, UniProt P08581); assay: Mobility shift assay, inhibitory activity against kinase c-MET; assay type: biochemical; conditions: ATP at Km (35 μM), average of two independent experiments
T2 construct: purchased Carna 08-151
T2 sequence (P08581 956-1390 limits assumed): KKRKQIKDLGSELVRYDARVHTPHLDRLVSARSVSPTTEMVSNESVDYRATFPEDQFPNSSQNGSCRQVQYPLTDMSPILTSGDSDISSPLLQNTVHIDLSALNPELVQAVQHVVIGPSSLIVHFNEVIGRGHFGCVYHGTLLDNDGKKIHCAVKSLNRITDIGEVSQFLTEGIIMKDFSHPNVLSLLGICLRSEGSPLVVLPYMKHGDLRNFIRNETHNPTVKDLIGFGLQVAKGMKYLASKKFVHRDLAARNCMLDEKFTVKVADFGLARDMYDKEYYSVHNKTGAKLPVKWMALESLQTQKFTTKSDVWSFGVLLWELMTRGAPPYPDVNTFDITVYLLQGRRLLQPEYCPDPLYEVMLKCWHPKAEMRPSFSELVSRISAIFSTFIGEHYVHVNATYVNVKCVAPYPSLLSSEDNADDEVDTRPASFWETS
Description: as §1, §2, §3, §4, §5, §6, §7

tyrosine kinase Mer = target: T3, tyrosine kinase Mer (Homo sapiens, UniProt Q12866); assay: HTRF assay, inhibitory activity against tyrosine kinase Mer; assay type: biochemical; conditions: ATP at Km (30 μM), two duplicate wells
T3 construct: purchased Carna 08-108
T3 sequence (Q12866 528-999 limits assumed): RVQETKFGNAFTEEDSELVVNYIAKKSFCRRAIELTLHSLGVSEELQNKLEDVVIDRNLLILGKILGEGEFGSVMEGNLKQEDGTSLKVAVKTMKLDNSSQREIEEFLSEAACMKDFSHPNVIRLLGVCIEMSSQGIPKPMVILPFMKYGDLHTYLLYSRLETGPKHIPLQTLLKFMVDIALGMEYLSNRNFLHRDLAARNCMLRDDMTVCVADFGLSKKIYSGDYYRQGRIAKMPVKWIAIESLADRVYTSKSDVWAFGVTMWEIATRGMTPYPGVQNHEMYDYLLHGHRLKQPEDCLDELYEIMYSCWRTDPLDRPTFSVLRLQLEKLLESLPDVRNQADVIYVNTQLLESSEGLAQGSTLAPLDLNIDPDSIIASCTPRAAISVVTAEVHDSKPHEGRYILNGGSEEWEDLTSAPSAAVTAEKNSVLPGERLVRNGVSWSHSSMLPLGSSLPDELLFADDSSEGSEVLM
Description: (§8) Test Example 2: Evaluation of Inhibitory Activity (IC50) of Compounds disclosed herein against Tyrosine Kinases Mer and Tyro3
(§9) In this test, HTRF method was used to test the inhibitory activity of compounds when ATP concentrations correspond to the Km of the kinases. The control substance was RXDX-106. The concentration of test compound was 3-fold diluted from an initial concentration of 10 μM, and two duplicate wells were set.
(§10) Kinase Mer (Carna, Cat. No. 08-108, Lot. No. 14CBS-0421H); Tyro3 (Carna, Cat. No. 08-109, Lot. No. 08CBS-1186H); HTRF kinase-TK kit (Cisbio, Cat. No. 62TK0PEC), the kit comprising: biotin-TK substrate lyophilized powder (Cisbio, Cat. No. 61TK0BLC, Lot. No. 07A), streptavidin-XL665 (Cisbio, Cat. No. 610SAXLG, Lot. No. 126A), TK antibody-cryptate (Cisbio, Cat. No. 610SAXLG, Lot. No. 04A), and detection buffer (including EDTA) (Cisbio, Cat. No. 62TK0PEC, Lot. No. 12A); ATP (Sigma, Cat. No. A7699-5G, CAS No. 34369-07-8, Lot. No. SLBQ6014V); DMSO (Sigma, Cat. No. D5879-1L, Lot. No. SHBH9944); HEPES (Sigma, Cat. No. V900477-500G, CAS No. 7365-45-9, Lot. No. WXBC4716V); MgCl2 (Sigma, Cat. No. 208337-1KG, Lot. No. MKBX9508V); EGTA (Sigma, Cat. No. E3889-100g, CAS 67-42-5, […], Lot. No. SLBG8546V); NP-40 (Beijing Dingguo, Cat. No. DH218, Lot. No. 36R00160); DTT (Sigma, Cat. No. D0632-25g, CAS No. 3483-12-3, Lot. No. SLBF3964V); compound plate (Labcyte, Cat. No. LP0200, Lot. No. 0006386836); assay plate (Greiner, Cat. No. 784075, Lot. No. E16123HM); control substance RXDX-106 (prepared according to the method disclosed in patent WO2013074633).
(§11) 1) Preparation of a buffer: 50 mM HEPES, 10 mM MgCl2, 1 mM EGTA, 0.01% NP-40, 2 mM DTT.
(§12) 2) Preparation of control substance and test samples: RXDX-106 and the compounds disclosed herein were each dissolved in DMSO to 10 mM and then diluted to 1 mM or an appropriate concentration with DMSO, and then serial double dilution was performed using BRAVO (Agilent). 100 nL of each was transferred from a compound plate (Labcyte-LP0200) to an assay plate (Greiner-784075) using ECHO 555 (Labcyte). The final concentration of DMSO was 1%.
(§13) 3) Mer and Tyro3 were each diluted to 0.5 nM and 1.2 nM with the detection buffer (Cisbio, Cat. No. 62TK0PEC, Lot. No. 12A). 5 μL of each was added to a 384-well plate and incubated with the compounds disclosed herein for 30 min at 22-25° C. Final concentrations of Mer and Tyro3 were 0.25 nM and 0.6 nM, respectively.
(§14) 4) Biotin-TK substrate and ATP were each diluted to a concentration twice the final concentration with 1× kinase buffer made up of HEPES, NaN3, BSA and orthovanadate. 5 μL of the mixture of substrate and ATP was added to the 384-well plate to initiate the reaction, which lasts for 1 h at 22-25° C.
(§15) 5) Streptavidin-XL665 and TK antibody-cryptate were diluted to 250 nM and 0.5 nM, respectively, with the detection buffer. […] of each of the two solutions was added to the 384-well plate to initiate the reaction, which lasts for 1 h at 22-25° C. The final concentrations of streptavidin-XL665 and TK antibody-cryptate were 125 nM and 0.25 nM, respectively.
(§16) 6) The fluorescence intensities at 665 nm and 615 nm were read with an Envision Reader (PerkinElmer) .
(§17) 7) IC50 values of the compounds were fitted with XL-fit software.

tyrosine kinase Tyro3 = target: T4, tyrosine kinase Tyro3 (Homo sapiens, UniProt Q06418); assay: HTRF assay, inhibitory activity against tyrosine kinase Tyro3; assay type: biochemical; conditions: ATP at Km (50 μM), two duplicate wells
T4 construct: purchased Carna 08-109
T4 sequence (Q06418 453-890 limits assumed): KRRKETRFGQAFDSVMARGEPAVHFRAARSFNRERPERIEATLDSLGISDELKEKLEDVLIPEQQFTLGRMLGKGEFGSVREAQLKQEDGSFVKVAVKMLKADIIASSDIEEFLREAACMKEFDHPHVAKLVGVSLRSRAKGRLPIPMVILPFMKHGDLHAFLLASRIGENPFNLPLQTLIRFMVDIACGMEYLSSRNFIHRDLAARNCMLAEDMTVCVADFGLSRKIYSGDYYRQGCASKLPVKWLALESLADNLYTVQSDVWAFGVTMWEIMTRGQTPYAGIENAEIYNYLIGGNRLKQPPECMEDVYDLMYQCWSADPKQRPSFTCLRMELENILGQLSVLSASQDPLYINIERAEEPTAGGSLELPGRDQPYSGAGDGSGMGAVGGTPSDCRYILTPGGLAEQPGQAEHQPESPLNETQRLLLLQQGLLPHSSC
Description: as §8, §9, §10, §11, §12, §13, §14, §15, §16, §17

Ba/F3 Axl cells = target: T5, Ba/F3 Axl cells (Homo sapiens, UniProt P30530); assay: Ba/F3 Axl cell proliferation, CellTiter-Glo Luminescent Cell Viability Assay; assay type: cell-based; conditions: read-out: IC50 (nM) against Ba/F3 Axl cells, 100 ng/mL rhGas6, 72 h incubation
T5 sequence (P30530 1-894): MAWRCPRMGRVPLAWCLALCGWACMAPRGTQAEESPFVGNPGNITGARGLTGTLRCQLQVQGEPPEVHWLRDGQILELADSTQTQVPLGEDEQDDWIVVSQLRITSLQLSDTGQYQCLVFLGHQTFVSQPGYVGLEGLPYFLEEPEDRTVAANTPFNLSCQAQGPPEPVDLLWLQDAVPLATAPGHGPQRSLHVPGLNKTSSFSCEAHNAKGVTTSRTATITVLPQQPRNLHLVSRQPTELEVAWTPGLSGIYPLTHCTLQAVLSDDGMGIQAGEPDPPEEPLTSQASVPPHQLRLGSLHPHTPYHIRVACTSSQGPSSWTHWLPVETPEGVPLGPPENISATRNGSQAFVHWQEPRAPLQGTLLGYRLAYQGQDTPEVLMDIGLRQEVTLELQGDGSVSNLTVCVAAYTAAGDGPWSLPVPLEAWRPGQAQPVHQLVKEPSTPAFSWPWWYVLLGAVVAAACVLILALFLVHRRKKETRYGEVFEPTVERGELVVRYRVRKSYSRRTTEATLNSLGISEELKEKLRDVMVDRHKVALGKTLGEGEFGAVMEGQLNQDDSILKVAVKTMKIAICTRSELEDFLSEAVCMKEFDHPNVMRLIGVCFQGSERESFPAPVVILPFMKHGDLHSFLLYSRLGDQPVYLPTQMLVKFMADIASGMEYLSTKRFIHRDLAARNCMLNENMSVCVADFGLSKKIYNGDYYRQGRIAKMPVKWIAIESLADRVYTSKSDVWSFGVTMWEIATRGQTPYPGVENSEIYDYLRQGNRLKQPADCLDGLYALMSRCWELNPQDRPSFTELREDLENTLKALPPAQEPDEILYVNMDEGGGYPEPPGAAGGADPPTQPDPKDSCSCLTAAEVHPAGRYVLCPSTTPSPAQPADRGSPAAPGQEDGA
Description: Test method: the inhibitory activity of the compounds against Ba/F3 Axl cell proliferation was evaluated using CellTiter-Glo® Luminescent Cell Viability Assay Kit (Promega).
Test procedures: when thawing Ba/F3 Axl cells, the cell cryopreservation tube was shaken rapidly in a water bath at 37° C. to thaw the cells in 1 min. The cell suspension after thawing was mixed with RPMI1640 culture medium containing 10% FBS and centrifuged for 5 min at 1000 rpm, and the supernatant was discarded. The cell pellet was suspended in 5 mL of complete culture medium. […] Cell passage was performed at a cell density of 2×10^6 viable cells/mL. When the cells were passaged, the original cell suspension was directly made uniform by pipetting. 1/10 (namely 0.5 mL) of the cell suspension was kept, added with 4.5 mL of new complete culture medium and then made uniform by pipetting. The cell culture flask was then placed in a cell incubator for further culturing. Cell plating was performed when the cell confluence reached 2×10^6 viable cells/mL again. With reference to the method for cell passage, 1/10 (namely 0.5 mL) of the cell suspension was kept for further culturing when the cells were plated, and the remaining cell suspension was placed in a 15 mL centrifuge tube. The supernatant was discarded after centrifugation, and 5 mL of complete culture medium was used to resuspend the cells. […] A control group that contains no cell or compound but only complete culture medium and a control group that contains no compound but cells were set. The cell plates were incubated overnight in a cell incubator. […] The cell plates were then incubated in the cell incubator for 72 h. […] The cell plate was left to stand at room temperature for 20 min to stabilize luminescence signals, and the luminescence value of each well was scanned by a Spectramax M3 multi-functional microplate reader (Molecular Devices) at full wavelength.
Test samples: example compounds of the present invention and bemcentinib (positive control compound).
Data analysis: cell viability was calculated for compounds at various concentrations using the following formula:
Cell viability(%)=(Lumtest compound−Lumculture solution control)/(Lumcell control−Lumculture solution control)×100%,
where Lum refers to the luminescence value of each well of the test compound plate read by the multi-functional microplate reader.
The data were analyzed using GraphPad Prism 7.0 software, fitted with nonlinear S-curve regression to give dose-response curves, and IC50 values were calculated therefrom.

Compound | IC50 (kinase Axl) [nM] | IC50 (kinase c-MET) [nM] | IC50 (tyrosine kinase Mer) [nM] | IC50 (tyrosine kinase Tyro3) [nM] | GI50 (Ba/F3 Axl cells) [nM]
COc1ccc(-c2cnc(N)c(-c3ccc(NC(=O)c4cn(C(C)C)c(C#N)c(-c5ccc(F)cc5)c4=O)cc3F)c2)cc1OC [Example 1, N-(4-(2-amino-5-(3,4-dimethoxyphenyl)pyridin-3-yl)-3-fluoro-phenyl)-6-cyano-5-(4-fluorophenyl)-1-isopropyl-4-oxo-1,4-dihydropyridine-3-carboxamide] | 13 | 133 | 4.9 | 7.51 | 
Nc1nc(Nc2ccc3c(c2)CC[C@@H](N2CCCC2)CC3)nn1-c1cc2c(nn1)-c1ccccc1CCC2 [Bemcentinib, bemcentinib, reference compound] |  |  |  |  | 26.9
